Drawing on the NIST ThermoML archive (doi:10.1016/j.jct.2008.01.022), this text covers mass density and viscosity for 4 molecules.

± gives the expanded uncertainty stated by the source.

For this data set the following is noted: 101.33 kPa, Liquid; for viscosity: Capillary tube (Ostwald / Ubbelohde) method.

Broadly, the mass density is mass per unit of volume. What is called viscosity is the resistance of a fluid to flow. In the case of `CCCCC(O)CO` (configuration not stated) [1,2-hexanediol], the mass density worked out at 951.86 ± 2.3 kg/m3 (293.15 K), 944.66 ± 2.3 kg/m3 (303.15 K), 937.34 ± 2.3 kg/m3 (313.15 K) and 929.9 ± 2.3 kg/m3 (323.15 K). In addition, the viscosity (293.15 K) was determined as 83.41 ± 1.6 mPa·s, the viscosity (303.15 K) is recorded as 42.25 ± 0.67 mPa·s, the viscosity (313.15 K) is 24.12 ± 0.39 mPa·s and the viscosity (323.15 K) is reported as 14.79 ± 0.24 mPa·s.
As for `CC(O)CO` (configuration not stated) [1,2-propanediol], the mass density reads like this: (293.15 K) 1036.3 ± 0.6 kg/m3; (303.15 K) 1028.92 ± 0.58 kg/m3; (313.15 K) 1021.39 ± 0.57 kg/m3; (323.15 K) 1013.7 ± 0.56 kg/m3. Besides, the viscosity was 56.21 ± 0.32 mPa·s (293.15 K), 32.63 ± 0.24 mPa·s (303.15 K), 19.58 ± 0.15 mPa·s (313.15 K) and 12.79 ± 0.1 mPa·s (323.15 K).
Regarding `CCCC(O)CO` (configuration not stated) [1,2-pentanediol], the viscosity runs as follows: (293.15 K) 76.96 ± 2.1 mPa·s; (303.15 K) 39.16 ± 1 mPa·s; (313.15 K) 22.52 ± 0.58 mPa·s; (323.15 K) 13.66 ± 0.35 mPa·s. In addition, the mass density reads like this: (293.15 K, Vibrating tube method) 970.35 ± 5.1 kg/m3; (303.15 K, Vibrating tube method) 963.07 ± 5 kg/m3; (313.15 K, Vibrating tube method) 955.65 ± 5 kg/m3; (323.15 K, Vibrating tube method) 948.12 ± 4.9 kg/m3.
As to `CCC(O)CO` (configuration not stated) [1,2-butanediol], the mass density by setting is: (293.15 K) 1002.43 ± 0.54 kg/m3; (303.15 K) 994.98 ± 0.54 kg/m3; (313.15 K) 987.39 ± 0.55 kg/m3; (323.15 K) 979.64 ± 0.56 kg/m3. Moreover, the viscosity reads like this: (293.15 K) 71.87 ± 0.69 mPa·s; (303.15 K) 37.86 ± 0.28 mPa·s; (313.15 K) 21.49 ± 0.16 mPa·s; (323.15 K) 13.12 ± 0.1 mPa·s.
